pIC50: −log10 of the molar value.
Experiments:
[1] = test system: HCT116 cells; experiment: Cell proliferation assay (MTT), HCT116; settings: CRC cell line, FIG. 8D
[2] = Metabolic stability HLM; type: in vitro ADME, human
[3] = test system: PDL1 expression; experiment: PDL1 expression in cancer cell lines; type: cell-based
[4] = test system: NCI-H2052 cells; experiment: Cell proliferation assay (MTT), NCI-H2052; settings: Homo sapiens, NCI-H2052, read-out: IC50 NCI-H2052 cell proliferation
[5] = Aqueous solubility (Aq Sol); type: physicochemical
[6] = test system: HCC95; experiment: HCC95 growth inhibition (SAR tables); type: cell-based
[7] = test system: TEAD-YAP target genes (CTGF, Cyr61, ANKRD1); experiment: Quantitative RT-PCR of TEAD-YAP target genes in H226 cells; type: cell-based, Human
Procedure: […] The high-capacity cDNA reverse transcription kit (4368814, Life Technologies) was employed to obtain cDNA. Target genes expression (Cyr61, CTGF and ANKRD1) was measured with PowerUp SYB Green Master Mix kit (A25777, Life Technologies). β-actin was used as reference gene. The primers are shown below:

[8] = Metabolic stability MLM; settings: % parent remained per Table G2
[9] = target: Myc-TEAD1 (Homo sapiens, UniProt P28347); experiment: Inhibition of Myc-TEAD1 palmitoylation in HEK293A cells; type: cell-based; settings: 24 h, dose-dependent, FIG. 2C
Procedure: HEK293A cells were seeded in 6 cm dishes overnight and transfected with plasmids using PEI reagent (1 μg/μL). Briefly, PRK5-Myc-TEAD1 (33109, Addgene) and PEI were diluted in serum-free DMEM medium in two tubes (DNA: PEI ratio=1:2). After standing still for 5 mins, mix them well and stay for another 20 mins. The mixture was then added to dishes directly.
HEK293A cells with or without TEAD overexpression were pretreated with DMSO or TM2 in medium with 10% dialyzed fetal bovine serum (DFBS) for 8 h and labeled by Alkynyl Palmitic acid (1165, Click Chemistry Tools) for another 16 h. The cells were then washed and harvested by cold DPBS (14190250, Life Technologies). The cell pellets were isolated by centrifugation (500×g, 10 min) and lysed by TEA lysis buffer (50 mM TEA-HCl, pH 7.4, 150 mM NaCl, 1% Triton X-100, 0.2% SDS, 1×Protease inhibitor-EDTA free cocktail (05892791001, Roche), phosphatase inhibitor cocktail (P0044, Sigma-Aldrich)) on ice for 30 mins. The protein concentration was determined using Bio-Rad assay and adjusted to 1 mg/mL. 100 μL of protein sample mixture was treated with 10 μL of freshly prepared “click” mixture containing 1 mM TBTA, 10 mM TCEP, 10 mM CuSO4, 1 mM TBTA Biotin-Azide and incubated for 1 h at room temperature. […] The bound proteins were eluted with a buffer containing 10 mM EDTA pH 8.2 and 95% formamide and analyzed with SDS-PAGE. […]

[10] = test system: H226; experiment: H226 growth inhibition (SAR tables); type: cell-based; settings: Homo sapiens, NCI-H226
[11] = test system: H226 cells; experiment: Cell proliferation assay (MTT), H226; settings: Homo sapiens, NCI-H226, 144 h, read-out: IC50 H226 cell proliferation
[12] = test system: endogenous TEAD1-4 (pan-TEAD); experiment: Inhibition of endogenous pan-TEAD palmitoylation in HEK293A cells; type: cell-based
Procedure: HEK293A cells with or without TEAD overexpression were pretreated with DMSO or TM2 in medium with 10% dialyzed fetal bovine serum (DFBS) for 8 h and labeled by Alkynyl Palmitic acid (1165, Click Chemistry Tools) for another 16 h. The cells were then washed and harvested by cold DPBS (14190250, Life Technologies). The cell pellets were isolated by centrifugation (500×g, 10 min) and lysed by TEA lysis buffer (50 mM TEA-HCl, pH 7.4, 150 mM NaCl, 1% Triton X-100, 0.2% SDS, 1×Protease inhibitor-EDTA free cocktail (05892791001, Roche), phosphatase inhibitor cocktail (P0044, Sigma-Aldrich)) on ice for 30 mins. The protein concentration was determined using Bio-Rad assay and adjusted to 1 mg/mL. 100 μL of protein sample mixture was treated with 10 μL of freshly prepared “click” mixture containing 1 mM TBTA, 10 mM TCEP, 10 mM CuSO4, 1 mM TBTA Biotin-Azide and incubated for 1 h at room temperature. The proteins were precipitated by chloroform/methanol/H20 mixture and redissolved with 2% SDS in 0.1% PBST. The solution was diluted with 0.1% PBST and incubated with prewashed streptavidin agarose beads (69203-3, E M D MILLIPORE). After rotation at room temperature for 2 h, the beads were then pelleted by centrifugation (500×g, 3 min) and washed with 0.2% SDS in PBS (3×1 mL). The bound proteins were eluted with a buffer containing 10 mM EDTA pH 8.2 and 95% formamide and analyzed with SDS-PAGE. […]

[13] = target: association of YAP with endogenous TEAD1 and pan-TEAD (Homo sapiens, UniProt P28347); experiment: YAP co-immunoprecipitation (Co-IP) assay in H226 cells; type: cell-based; settings: H226, 24 h, dose-dependent, FIG. 5A
Procedure: H226 cells were treated with DMSO or TM2 for 24 h. The cells were then washed and harvested by cold DPBS. The cell pellets were isolated by centrifugation (500×g, 10 min) and lysed by lysis buffer (50 mM Tris-HCl pH 7.5, 10% Glycerol, 1% NP-40, 300 mM NaCl, 150 mM KCl, 5 mM EDTA, phosphatase inhibitor cocktail, complete EDTA-free protease inhibitors cocktail) on ice. After dilution with 50 mM Tris-HCl pH 7.5, 10% Glycerol, 1% NP-40, 5 mM EDTA, the protein samples were incubated with mouse anti-YAP antibody (sc-101199, Santa Cruz) overnight at 4° C. and immunoprecipitated with prewashed protein A/G beads (P5030-1, UBPBio) for another 4 h at 4° C. The bound proteins were washed with 0.1% PBST for three times and eluted with 1×SDS loading buffer and analyzed with SDS-PAGE. Anti-TEAD1 (1:1000, 12292S, Cell Signaling), anti-pan-TEAD (1:1000, 13295, Cell Signaling) or anti-YAP (1:1000, 140745, Cell Signaling) antibody were used to detect TEAD1, pan-TEAD or YAP, respectively. Secondary antibody was anti-rabbit (1:5000, 7074S, Cell Signaling).

[14] = target: TEAD2 (Homo sapiens, UniProt Q15562); experiment: Inhibition of TEAD2 auto-palmitoylation in vitro; settings: FIG. 1; 0.05 and 0.5 μM for 30 mins
[15] = test system: KNS62; experiment: KNS62 growth inhibition (SAR tables); type: cell-based
[16] = test system: DLD1 cells; experiment: Cell proliferation assay (MTT), DLD1; settings: CRC cell line, FIG. 8D

Chain of Myc-TEAD1 (P28347 whole entry): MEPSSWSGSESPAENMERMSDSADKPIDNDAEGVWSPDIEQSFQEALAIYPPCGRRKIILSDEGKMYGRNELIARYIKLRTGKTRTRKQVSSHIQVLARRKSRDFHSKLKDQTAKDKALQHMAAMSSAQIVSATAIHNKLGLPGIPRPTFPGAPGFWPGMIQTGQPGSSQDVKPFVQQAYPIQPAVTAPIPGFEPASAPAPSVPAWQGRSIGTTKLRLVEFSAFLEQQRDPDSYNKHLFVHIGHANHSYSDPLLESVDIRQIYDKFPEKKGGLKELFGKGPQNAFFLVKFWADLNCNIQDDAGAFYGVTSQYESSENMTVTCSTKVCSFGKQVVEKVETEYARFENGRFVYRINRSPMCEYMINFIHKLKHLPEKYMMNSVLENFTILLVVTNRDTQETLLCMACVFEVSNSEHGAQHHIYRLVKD
Chain of association of YAP with endogenous TEAD1 and pan-TEAD (P28347 whole entry): as above
Chain of TEAD2 (Q15562 whole entry): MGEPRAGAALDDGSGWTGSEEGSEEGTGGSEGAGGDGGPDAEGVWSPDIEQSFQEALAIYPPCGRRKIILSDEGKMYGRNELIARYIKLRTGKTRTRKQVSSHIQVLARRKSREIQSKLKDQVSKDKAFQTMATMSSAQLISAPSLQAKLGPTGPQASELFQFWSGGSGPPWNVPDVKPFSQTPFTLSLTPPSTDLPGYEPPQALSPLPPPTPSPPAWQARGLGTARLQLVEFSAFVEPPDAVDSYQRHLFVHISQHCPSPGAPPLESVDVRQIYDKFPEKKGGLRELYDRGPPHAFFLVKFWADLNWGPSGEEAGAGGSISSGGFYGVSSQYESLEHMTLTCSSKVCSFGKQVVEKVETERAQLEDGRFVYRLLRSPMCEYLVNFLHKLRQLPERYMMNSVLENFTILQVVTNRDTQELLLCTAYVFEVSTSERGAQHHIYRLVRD

With `O=C(Nc1ccccc1)N1CCN(C(=O)c2cccc(OCCC3CCCCC3)c2)CC1` [TM2, 4-(3-(2-cyclohexylethoxy)benzoyl)-N-phenylpiperazine-1-carboxamide] as the compound, how does the “inhibition of HCT116 cell proliferation (in words)” value [1] read?
The value was “did not exhibit strong inhibition”.

And the Met stab HLM, 15 min ([2]; 15 min)?
Its Met stab HLM, 15 min is 44%.

And the Met stab HLM, 60 min ([2]; 60 min)?
The Met stab HLM, 60 min was 6%.

What about the “PDL1 expression in cancer cell lines (in words)” value [3] of the same compound?
The value was “inhibits PDL1 expression”.

And the pIC50 [4]?
The pIC50 was 6.80.

What about the “Aq Sol” value [5] of the same compound?
Its value is 2.3 µM.

And the “HCC95: value at 1 μM” value ([6]; 1 μM)?
The value was 37.

And the “HCC95: value at 10 μM” value ([6]; 10 μM)?
Its value is 65.

And the “expression level of CTGF and ANKDR1 (in words)” value ([7]; H226, 24 and 48 h)?
The value was “significantly suppressed”.

And the “expression of Cyr61 (in words)” value ([7]; H226, 48 h)?
Its value is “strong response”.

And the Met stab MLM, 15 min ([8]; 15 min)?
The Met stab MLM, 15 min was 36%.

What about the Met stab MLM, 60 min ([8]; 60 min) of the same compound?
Its Met stab MLM, 60 min is 4%.

And the “Myc-TEAD1 palmitoylation in cells (in words)” value [9]?
The value was “dramatically suppresses”.

What about the GI50 [10] of the same compound?
Its GI50 is 73 nM.

And the pIC50 [11]?
The pIC50 was 7.59.

And the “Pan-TEAD palmitoylation at 100 nM (in words)” value ([12]; 100 nM)?
The value was “diminished”.

And the “endogenous TEAD1-4 (pan-TEAD) palmitoylation (in words)” value ([12]; HEK293A, 24 h, FIG. 2D)?
The value was “significantly inhibits”.

What about the “association of YAP with endogenous TEAD1 and pan-TEAD (in words)” value [13] of the same compound?
Its value is “dramatically blocked”.

What about the “inhibition of TEAD2 auto-palmitoylation (in words)” value [14] of the same compound?
The value was “most potent compound”.

What about the “KNS62: value at 1 μM” value ([15]; 1 μM) of the same compound?
Its value is 37.

And the “KNS62: value at 10 μM” value ([15]; 10 μM)?
Its value is 28.

And the “inhibition of DLD1 cell proliferation (in words)” value [16]?
The value was “did not exhibit strong inhibition”.
